From patent publication US11608323B2 (SYNGENTA LIMITED, priority 2013, dated 2023)

Assays:
Format in all cases: in vivo
ABUTH [1] = assay: Pre-emergence herbicidal activity, glasshouse pot test; details: rate 1000 g/Ha, evaluated after 13 days, scale 0-5
Summary of the method: (§1)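 Seeds sown in standard soil in pots, held one day in glasshouse (24/16 °C day/night, 14 h light, 65% humidity), then sprayed with aqueous solution of compound formulated in acetone/water 50:50 with 0.5% Tween 20. Grown on under same conditions, watered twice daily; damage scored after 13 days (0 = none, 5 = total).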

ALOMY [2] = assay: as above; details: rate 1000 g/Ha, evaluated after 13 days, scale 0-5
Summary of the method: as §1

AMARE [3] = assay: as above; details: rate 1000 g/Ha, evaluated after 13 days, scale 0-5
Summary of the method: as §1

ECHCG [4] = assay: as above; details: rate 1000 g/Ha, evaluated after 13 days, scale 0-5
Summary of the method: as §1

SETFA [5] = assay: as above; details: rate 1000 g/Ha, evaluated after 13 days, scale 0-5
Summary of the method: as §1

ZEAMX [6] = assay: as above; details: rate 1000 g/Ha, evaluated after 13 days, scale 0-5
Summary of the method: as §1

ABUTH [7] = assay: Post-emergence herbicidal activity, glasshouse pot test; details: Abutilon theophrasti; application post-emergence; rate 1000 g/Ha; evaluated after 13 days
Summary of the method: (§2)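 Damage rating 0 (none) to 5 (total), assessed 13 days after spraying. Plants received the compound in acetone/water 50:50 with 0.5% Tween 20 at 8 days post-sowing, then were kept at 24/16 °C, 14 h photoperiod, 65% RH.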

ALOMY [8] = assay: as above; details: Alopecurus myosuroides; application post-emergence; rate 1000 g/Ha; evaluated after 13 days
Summary of the method: as §2

AMARE [9] = assay: as above; details: Amaranthus retroflexus; application post-emergence; rate 1000 g/Ha; evaluated after 13 days
Summary of the method: as §2

ECHCG [10] = assay: as above; details: Echinochloa crus-galli; application post-emergence; rate 1000 g/Ha; evaluated after 13 days
Summary of the method: as §2

SETFA [11] = assay: as above; details: Setaria faberi; application post-emergence; rate 1000 g/Ha; evaluated after 13 days
Summary of the method: as §2

ZEAMX [12] = assay: as above; details: Zea mays; application post-emergence; rate 1000 g/Ha; evaluated after 13 days
Summary of the method: as §2

| SMILES | ABUTH damage score, application pre-emergence (ABUTH [1]) | ALOMY damage score, application pre-emergence (ALOMY [2]) | AMARE damage score, application pre-emergence (AMARE [3]) | ECHCG damage score, application pre-emergence (ECHCG [4]) | SETFA damage score, application pre-emergence (SETFA [5]) | ZEAMX damage score, application pre-emergence (ZEAMX [6]) | Post-emergence herbicidal activity ABUTH (damage score 0-5) (ABUTH [7]) | Post-emergence herbicidal activity ALOMY (damage score 0-5) (ALOMY [8]) | Post-emergence herbicidal activity AMARE (damage score 0-5) (AMARE [9]) | Post-emergence herbicidal activity ECHCG (damage score 0-5) (ECHCG [10]) | Post-emergence herbicidal activity SETFA (damage score 0-5) (SETFA [11]) | Post-emergence herbicidal activity ZEAMX (damage score 0-5) (ZEAMX [12]) |
| --- | --- | --- | --- | --- | --- | --- | --- | --- | --- | --- | --- | --- |
| COc1cnc(N2C(=O)N(C)C(C)C2O)cc1C(F)(F)F (stereo not shown) [Compound A12, 5-hydroxy-1-[5-methoxy-4-(trifluoromethyl)-2-pyridyl]-3,4-dimethyl-imidazolidin-2-one] | 5 | 4 | 5 | 5 | 5 | 3 | 5 | 5 | 5 | 5 | 5 | 5 |
| CC1C(O)N(c2cc(C(F)(F)F)c(I)cn2)C(=O)N1C (stereo not shown) [Compound A25, 5-hydroxy-1-[5-iodo-4-(trifluoromethyl)-2-pyridyl]-3,4-dimethyl-imidazolidin-2-one] | 5 | 4 | 5 | 5 | 4 | 2 | 5 | 5 | 5 | 5 | 5 | 5 |
| COC(OC)C1C(O)N(c2cc(C(F)(F)F)ccn2)C(=O)N1C (stereo not shown) [Compound A42] | 1 | 0 | 4 | 0 | 3 | 0 | 4 | 2 | 4 | 0 | 2 | 1 |
| CCOC1C(O)N(c2cc(C(F)(F)F)c(-c3ccccc3)cn2)C(=O)N1C (stereo not shown) [Compound A13] | 5 | 3 | 5 | 3 | 3 | 1 | 5 | 4 | 5 | 5 | 5 | 0 |
| CC1C(O)N(c2cc(C(C)(F)F)ccn2)C(=O)N1C (stereo not shown) [Compound A60] | 5 | 1 | 5 | 1 | 1 | 0 | 5 | 4 | 5 | 4 | 3 | 3 |
| CC1C(O)N(c2ccc(Cl)cn2)C(=O)N1C (single isomer, unassigned) [Compound A26] | 4 | 2 | 3 | 4 | 4 | 2 | 4 | 1 | 3 | 1 | 1 | 1 |
| CC1C(O)N(c2cc(C(F)(F)F)c(NC(=O)C(C)(C)C)cn2)C(=O)N1C (single isomer, unassigned) [Compound A57] | 5 | 4 | 5 | 3 | 3 | 1 | 5 | 5 | 5 | 5 | 5 | 4 |
| CC1C(O)N(c2cc(C(F)(F)F)ccn2)C(=O)N1C (stereo not shown) [Compound A19, 4-hydroxy-1,5-dimethyl-3-[4-(trifluoromethyl)-2-pyridyl]imidazolidin-2-one] | 5 | 4 | 5 | 5 | 5 | 3 | 5 | 5 | 5 | 5 | 5 | 4 |
| C#CCOC1C(O)N(c2cc(C(F)(F)F)ccn2)C(=O)N1C (stereo not shown) [Compound A44] | 5 | 4 | 5 | 5 | 4 | 2 | 5 | 4 | 5 | 5 | 5 | 4 |
| CCOC1C(O)N(c2cc(C(F)(F)F)c(-c3cncnc3)cn2)C(=O)N1C (stereo not shown) [Compound A14] |  | 4 | 5 | 5 | 5 |  | 5 | 4 | 5 | 5 | 5 | 3 |
